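Step 1: Grow cells in 96-well plates. Step 2: Expose to compound for 48 hours at 5 concentrations. Step 3: Interpolate endpoints linearly; if unreached, use highest concentration. The concentration for 50% growth inhibition is given as GI50. At the TGI there is no net growth.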
Key:
Test in all cases: NCI-60 cell line screen, 48 h
[1] = system: 786-0 renal
[2] = system: A498 renal
[3] = system: A549 NSCLC
[4] = system: ACHN renal
[5] = system: BT-549 breast
[6] = system: CAKI-1 renal
[7] = system: CCRF-CEM leukemia
[8] = system: COLO 205 colon
[9] = system: DU-145 prostate
[10] = system: HCC-2998 colon
[11] = system: HCT-116 colon
[12] = system: HCT-15 colon
[13] = system: HL-60(TB) leukemia
[14] = system: HOP-62 NSCLC
[15] = system: HOP-92 NSCLC
[16] = system: HS 578T breast
[17] = system: HT29 colon
[18] = system: IGROV1 ovarian
[19] = system: K-562 leukemia
[20] = system: KM12 colon
[21] = system: LOX IMVI melanoma
[22] = system: M14 melanoma
[23] = system: MALME-3M melanoma
[24] = system: MCF7 breast
[25] = system: MDA-MB-231 breast
[26] = system: MDA-MB-435
[27] = system: MOLT-4 leukemia
[28] = system: NCI-H226 lung
[29] = system: NCI-H23 lung
[30] = system: NCI-H460 lung
[31] = system: NCI-H522 lung
[32] = system: NCI/ADR-RES ovarian
[33] = system: OVCAR-3 ovarian
[34] = system: OVCAR-4 ovarian
[35] = system: OVCAR-5 ovarian
[36] = system: OVCAR-8 ovarian
[37] = system: PC-3 prostate
[38] = system: RPMI-8226 leukemia
[39] = system: RXF 393 renal
[40] = system: SF-268 CNS
[41] = system: SF-539 CNS
[42] = system: SK-MEL-2 melanoma
[43] = system: SK-MEL-28 melanoma
[44] = system: SK-MEL-5 melanoma
[45] = system: SK-OV-3 ovarian
[46] = system: SN12C renal
[47] = system: SNB-19 CNS
[48] = system: SNB-75 CNS
[49] = system: SR leukemia
[50] = system: SW-620 colon
[51] = system: T-47D breast
[52] = system: TK-10 renal
[53] = system: UACC-62 melanoma
[54] = system: UO-31 renal

In the case of `CCOC(=O)C1=C(N)CCC1C` (stereo not drawn), the GI50 [1] is reported as > 100 µM, the TGI [1] is reported as > 100 µM and the GI50 [2] is reported as > 100 µM. The TGI [2] was > 100 µM, the GI50 [3] was > 100 µM and the TGI [3] was > 100 µM. The GI50 [4] was > 100 µM, the TGI [4] was > 100 µM and the GI50 [5] was > 100 µM. The TGI [5] was > 100 µM, the GI50 [6] was > 100 µM and the TGI [6] was > 100 µM. For the same compound, the GI50 [7] was > 100 µM, the TGI [7] was > 100 µM and the GI50 [8] was > 100 µM. The TGI [8] was > 100 µM, the GI50 [9] was > 100 µM and the TGI [9] was > 100 µM. For the same compound, the GI50 [10] was > 100 µM, the TGI [10] was > 100 µM and the GI50 [11] was > 100 µM. For the same compound, the TGI [11] was > 100 µM, the GI50 [12] was > 100 µM and the TGI [12] was > 100 µM. The GI50 [13] was 69.8 µM, the TGI [13] was > 100 µM and the GI50 [14] was > 100 µM. For the same compound, the TGI [14] was > 100 µM, the GI50 [15] was 41.2 µM and the TGI [15] was > 100 µM. The GI50 [16] was > 100 µM, the TGI [16] was > 100 µM and the GI50 [17] was > 100 µM. For the same compound, the TGI [17] was > 100 µM, the GI50 [18] was > 100 µM and the TGI [18] was > 100 µM. For the same compound, the GI50 [19] was > 100 µM, the TGI [19] was > 100 µM and the GI50 [20] was > 100 µM. The TGI [20] was > 100 µM, the GI50 [21] was > 100 µM and the TGI [21] was > 100 µM. The GI50 [22] was > 100 µM, the TGI [22] was > 100 µM and the GI50 [23] was > 100 µM. For the same compound, the TGI [23] was > 100 µM, the GI50 [24] was > 100 µM and the TGI [24] was > 100 µM. For the same compound, the GI50 [25] was > 100 µM, the TGI [25] was > 100 µM and the GI50 [26] was > 100 µM. The TGI [26] was > 100 µM, the GI50 [27] was 22.7 µM and the TGI [27] was 65.5 µM. For the same compound, the GI50 [28] was > 100 µM, the TGI [28] was > 100 µM and the GI50 [29] was > 100 µM. The TGI [29] was > 100 µM, the GI50 [30] was > 100 µM and the TGI [30] was > 100 µM. The GI50 [31] was > 100 µM, the TGI [31] was > 100 µM and the GI50 [32] was > 100 µM. The TGI [32] was > 100 µM, the GI50 [33] was > 100 µM and the TGI [33] was > 100 µM. For the same compound, the GI50 [34] was > 100 µM, the TGI [34] was > 100 µM and the GI50 [35] was > 100 µM. The TGI [35] was > 100 µM, the GI50 [36] was > 100 µM and the TGI [36] was > 100 µM. The GI50 [37] was > 100 µM, the TGI [37] was > 100 µM and the GI50 [38] was > 100 µM. The TGI [38] was > 100 µM, the GI50 [39] was > 100 µM and the TGI [39] was > 100 µM. For the same compound, the GI50 [40] was > 100 µM, the TGI [40] was > 100 µM and the GI50 [41] was > 100 µM. The TGI [41] was > 100 µM, the GI50 [42] was > 100 µM and the TGI [42] was > 100 µM. The GI50 [43] was > 100 µM, the TGI [43] was > 100 µM and the GI50 [44] was > 100 µM. For the same compound, the TGI [44] was > 100 µM, the GI50 [45] was > 100 µM and the TGI [45] was > 100 µM. The GI50 [46] was > 100 µM, the TGI [46] was > 100 µM and the GI50 [47] was > 100 µM. For the same compound, the TGI [47] was > 100 µM, the GI50 [48] was > 100 µM and the TGI [48] was > 100 µM. For the same compound, the GI50 [49] was 8.35 µM, the TGI [49] was > 100 µM and the GI50 [50] was > 100 µM. For the same compound, the TGI [50] was > 100 µM, the GI50 [51] was > 100 µM and the TGI [51] was > 100 µM. For the same compound, the GI50 [52] was > 100 µM, the TGI [52] was > 100 µM and the GI50 [53] was > 100 µM. For the same compound, the TGI [53] was > 100 µM, the GI50 [54] was > 100 µM and the TGI [54] was > 100 µM.
